From patent US9023789B2, “Amylin analogs and pharmaceutical compositions thereof” (Novo Nordisk A/S, priority 2012, dated 2015)
pIC50: −log10 of the molar value. Like-named read-outs stand apart in the source and are kept apart here. Numbered stars: 1 amine (or outer) side, 2 acyl side, 3 side chain; on linkers, the order of the positions; unused ones are H or OH. Bridge positions count the residues as written; N and C are the ends. Peptide text beside a SMILES is read from it. * marks the point of attachment. C20 diacid = O=C(O)CCCCCCCCCCCCCCCCCCC(=O)*; γGlu = O=C(O)[C@H](CCC(=O)[*:2])N[*:1]

Assays:
[1] = ASSAY (IV) determination of solubility; type: physicochemical
Summary of the method: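 Dissolve polypeptide in water ([…] stock); combine 1:1 with each 100 mM buffer (glycylglycine pH 3.0/4.0/5.0; bistrispropane pH 6.0/6.5/7.0/7.5/8.0); hold 18 hours at room temperature; centrifuge; quantify polypeptide by UPLC.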

[2] = target: T1, human amylin receptor (membranes from Amylin 3(a)/CRE-luc cells) (Homo sapiens, UniProt O60896+P30988); test: ASSAY (V) binding to the human amylin receptor (SPA, 125I-rat amylin);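 note: competition binding of cell membranes (35 ng/µL) mixed with SPA beads in 384-well plates at 40 µL total volume, read by scintillation counting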
T1 construct: expressed in transfected cells
T1 sequence (P30988 25-474): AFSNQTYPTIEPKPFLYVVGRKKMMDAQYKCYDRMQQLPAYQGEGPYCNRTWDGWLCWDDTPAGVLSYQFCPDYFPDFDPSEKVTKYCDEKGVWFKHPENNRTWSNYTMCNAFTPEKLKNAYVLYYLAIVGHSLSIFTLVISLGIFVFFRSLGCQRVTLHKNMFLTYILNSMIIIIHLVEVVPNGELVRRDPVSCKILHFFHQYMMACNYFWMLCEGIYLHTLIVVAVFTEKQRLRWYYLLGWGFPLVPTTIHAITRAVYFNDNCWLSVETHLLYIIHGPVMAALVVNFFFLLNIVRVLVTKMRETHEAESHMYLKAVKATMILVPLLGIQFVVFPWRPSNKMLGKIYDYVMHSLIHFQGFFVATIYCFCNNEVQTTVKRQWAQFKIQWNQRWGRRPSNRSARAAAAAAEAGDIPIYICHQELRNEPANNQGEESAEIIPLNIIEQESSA
T1 sequence (O60896 24-148 partner): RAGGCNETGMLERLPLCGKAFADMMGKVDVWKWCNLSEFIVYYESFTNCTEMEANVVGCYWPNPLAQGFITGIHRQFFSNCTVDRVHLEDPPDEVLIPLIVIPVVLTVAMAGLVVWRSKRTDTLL

[3] = target: T2, rat amylin receptor (rat calcitonin receptor + rat RAMP 3) (Rattus norvegicus, UniProt P32214+Q9JJ73); test: ASSAY (VI) binding to the rat amylin receptor; conditions: for pIC50: binding to rat amylin receptor, read-out: rAmylin-R bind IC50
T2 construct: expressed in transfected cells; host or cells: BHK tk'ts 13 (transient, FuGENE 6), membranes
T2 sequence (P32214 25-479 isoform P32214-2 limits assumed): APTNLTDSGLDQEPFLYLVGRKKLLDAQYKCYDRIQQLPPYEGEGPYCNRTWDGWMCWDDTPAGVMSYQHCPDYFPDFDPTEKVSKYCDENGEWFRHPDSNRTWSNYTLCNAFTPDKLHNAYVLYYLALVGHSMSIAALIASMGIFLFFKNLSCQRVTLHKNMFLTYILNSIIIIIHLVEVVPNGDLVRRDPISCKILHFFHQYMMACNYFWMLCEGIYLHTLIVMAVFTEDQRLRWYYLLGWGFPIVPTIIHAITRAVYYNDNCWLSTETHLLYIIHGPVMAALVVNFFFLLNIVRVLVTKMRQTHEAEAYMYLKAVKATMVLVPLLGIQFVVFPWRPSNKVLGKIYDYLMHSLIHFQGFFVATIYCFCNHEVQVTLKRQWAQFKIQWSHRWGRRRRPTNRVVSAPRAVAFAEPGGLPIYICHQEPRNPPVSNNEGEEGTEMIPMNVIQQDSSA
T2 sequence (Q9JJ73 23-147 partner): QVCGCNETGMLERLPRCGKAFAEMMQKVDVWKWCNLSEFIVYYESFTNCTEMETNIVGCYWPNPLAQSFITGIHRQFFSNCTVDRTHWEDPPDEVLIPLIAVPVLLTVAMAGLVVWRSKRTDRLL
Summary of the method: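 Binding to the rat amylin receptor was determined with membrane preparations. The receptor was expressed by transiently transfecting BHK tk′ts 13 cells with rat calcitonin receptor, using FuGENE® 6 (Roche) according to the manufacturer's recommendations. Roughly 48 hours later the cells were harvested and their membranes isolated.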

[4] = target: T3, rat calcitonin receptor (Rattus norvegicus, UniProt P32214); test: ASSAY (VIII) binding to the rat calcitonin receptor; conditions: Table 7, read-out: rCTR bind IC50
T3 construct: expressed in transfected cells; host or cells: BHK tk'ts 13 (transient, FuGENE 6), membranes
T3 sequence (P32214 25-479 isoform P32214-2 limits assumed): T2 sequence (P32214 25-479 isoform P32214-2 limits assumed)
Summary of the method: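 Rat calcitonin receptor is expressed transiently in BHK tk′ts 13 cells cultured in DMEM with 10% FBS. Roughly two days (approximately 48 hours) post-transfection, cells are harvested for membrane preparation.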

[5] = bistrispropane buffer, pH 6.5, read-out: Solubility pH 6.5 Concentration
[6] = bistrispropane buffer, pH 7.5, read-out: Solubility pH 7.5 Concentration
[7] = bistrispropane buffer, pH 6.0, read-out: Solubility pH 6.0 Concentration
[8] = bistrispropane buffer, pH 7.0, read-out: Solubility pH 7.0 Concentration
[9] = bistrispropane buffer, pH 8.0, read-out: Solubility pH 8.0 Concentration
[10] = glycylglycine buffer, pH 3.0, read-out: Solubility pH 3.0 Concentration
[11] = glycylglycine buffer, pH 4.0, read-out: Solubility pH 4.0 Concentration
[12] = glycylglycine buffer, pH 5.0, read-out: Solubility pH 5.0 Concentration
[13] = Table 5, selectivity, hCTR bind IC50 / hAmylin-R bind IC50
[14] = Table 5a, selectivity, hCTR bind IC50 / hAmylin-R bind IC50
[15] = Table 5b, selectivity, hCTR bind IC50 / hAmylin-R bind IC50
[16] = Table 7, human binding selectivity, included for comparison
[17] = Table 7a (preferred compounds), human binding selectivity, included for comparison
[18] = ratio of human calcitonin receptor binding IC50 to human amylin receptor binding IC50
[19] = Table 7, rat binding selectivity, rCTR IC50 / rAmylin-R IC50
[20] = Table 7a (preferred compounds), rat binding selectivity, rCTR IC50 / rAmylin-R IC50
[21] = ratio of rCTR bind IC50 to rAmylin-R bind IC50

SMILES	solubility at 18 h [1, 5]	solubility at 18 h [1, 6]	solubility at 18 h [1, 7]	solubility at 18 h [1, 8]	solubility at 18 h [1, 9]	solubility at 18 h [1, 10]	solubility at 18 h [1, 11]	solubility at 18 h [1, 12]	Ratio hCT/hAmylin binding [2, 13]	Ratio hCT/hAmylin binding [2, 14]	Ratio hCT/hAmylin binding [2, 15]	Ratio hCT/hAmylin binding [2, 16]	Ratio hCT/hAmylin binding [2, 17]	Ratio hCT/hAmylin binding [2, 18]	pIC50 ([3]; Table 7)	Ratio rCT/rAmylin binding [3, 19]	Ratio rCT/rAmylin binding [3, 20]	Ratio rCT/rAmylin binding [3, 21]	pIC50 [4]	further results
CC[C@H](C)[C@H](NC(=O)[C@H](C)NC(=O)CNC(=O)[C@H](Cc1ccccc1)NC(=O)[C@H](CC(N)=O)NC(=O)[C@@H]1CCCN1C(=O)[C@H](CO)NC(=O)[C@H](CO)NC(=O)[C@H](Cc1c[nH]cn1)NC(=O)[C@H](CCCNC(=N)N)NC(=O)[C@H](CC(C)C)NC(=O)[C@H](Cc1ccccc1)NC(=O)[C@H](CCC(=O)O)NC(=O)[C@H](C)NC(=O)[C@H](CC(C)C)NC(=O)[C@H](CCCNC(=N)N)NC(=O)[C@H](CCC(N)=O)NC(=O)[C@@H](NC(=O)[C@H](C)NC(=O)[C@@H]1CSSC[C@H](NC(=O)[C@H](CCCCN)NC(=O)CC[C@H](NC(=O)CCCCCCCCCCCCCCCCCCC(=O)O)C(=O)O)C(=O)N[C@@H](CC(N)=O)C(=O)N[C@@H]([C@@H](C)O)C(=O)N[C@@H](C)C(=O)N[C@@H]([C@@H](C)O)C(=O)N1)[C@@H](C)O)C(=O)N1CCC[C@H]1C(=O)N[C@@H](CO)C(=O)N[C@@H](CO)C(=O)N[C@H](C(=O)N1CCC[C@H]1C(=O)N[C@H](C(=O)NCC(=O)N[C@@H](CO)C(=O)N[C@@H](CC(N)=O)C(=O)N[C@H](C(=O)N[C@@H](Cc1ccc(O)cc1)C(N)=O)[C@@H](C)O)C(C)C)[C@@H](C)O [Example 31] ({C20 diacid-γGlu}-KCNTATCATQRLAEFLRHSSPNFGAIPSSTPVGSNTY-NH2; disulfide 2-7 (inferred))	≥ 200 µM	≥ 200 µM	≥ 200 µM	≥ 200 µM	≥ 200 µM	≥ 200 µM	≥ 200 µM	≥ 200 µM	16.0	16.0	16.0	16.0	16.0	16.0	9.21	42.8	42.8	42.8	7.58	–
CC[C@H](C)[C@H](NC(=O)[C@H](C)NC(=O)CNC(=O)[C@H](Cc1ccccc1)NC(=O)[C@H](CC(N)=O)NC(=O)[C@@H]1CCCN1C(=O)[C@H](CO)NC(=O)[C@H](CO)NC(=O)[C@H](Cc1c[nH]cn1)NC(=O)[C@H](CCCNC(=N)N)NC(=O)[C@H](CC(C)C)NC(=O)[C@H](Cc1ccccc1)NC(=O)[C@H](CCC(=O)O)NC(=O)[C@H](C)NC(=O)[C@H](CC(C)C)NC(=O)[C@H](CCCNC(=N)N)NC(=O)[C@H](CCC(N)=O)NC(=O)[C@@H](NC(=O)[C@H](C)NC(=O)[C@@H]1CSSC[C@H](NC(=O)[C@H](CCCCN)NC(=O)CC[C@H](NC(=O)CCCCCCCCCCCCCCCCCCC(=O)O)C(=O)O)C(=O)N[C@@H](CC(N)=O)C(=O)N[C@@H]([C@@H](C)O)C(=O)N[C@@H](C)C(=O)N[C@@H]([C@@H](C)O)C(=O)N1)[C@@H](C)O)C(=O)N1CCC[C@H]1C(=O)N[C@@H](CO)C(=O)N[C@@H](CO)C(=O)N[C@H](C(=O)N[C@@H](CC(N)=O)C(=O)N[C@H](C(=O)NCC(=O)N[C@@H](CCCCN)C(=O)N[C@@H](CC(N)=O)C(=O)N[C@H](C(=O)N[C@@H](Cc1ccc(O)cc1)C(N)=O)[C@@H](C)O)C(C)C)[C@@H](C)O [Example 36] ({C20 diacid-γGlu}-KCNTATCATQRLAEFLRHSSPNFGAIPSSTNVGKNTY-NH2; disulfide 2-7 (inferred))	≥ 200 µM	≥ 200 µM	≥ 200 µM	≥ 200 µM	≥ 200 µM	≥ 200 µM	≥ 200 µM	≥ 200 µM	15.7	15.7	15.7	15.7	15.7	15.7	8.73	32.4	32.4	32.4	7.22	–
CC[C@H](C)[C@H](NC(=O)[C@H](C)NC(=O)CNC(=O)[C@H](Cc1ccccc1)NC(=O)[C@H](CC(N)=O)NC(=O)[C@@H]1CCCN1C(=O)[C@H](CO)NC(=O)[C@H](CO)NC(=O)[C@H](Cc1c[nH]cn1)NC(=O)[C@H](CCCNC(=N)N)NC(=O)[C@H](CC(C)C)NC(=O)[C@H](Cc1ccccc1)NC(=O)[C@H](CC(N)=O)NC(=O)[C@H](C)NC(=O)[C@H](CC(C)C)NC(=O)[C@H](CCCNC(=N)N)NC(=O)[C@H](CCC(N)=O)NC(=O)[C@@H](NC(=O)[C@H](C)NC(=O)[C@@H]1CSSC[C@H](NC(=O)[C@@H](N)CCCCNC(=O)COCCOCCNC(=O)CCCCCCCCCCCCCCCCCCC(=O)O)C(=O)N[C@@H](CC(N)=O)C(=O)N[C@@H]([C@@H](C)O)C(=O)N[C@@H](C)C(=O)N[C@@H]([C@@H](C)O)C(=O)N1)[C@@H](C)O)C(=O)N1CCC[C@H]1C(=O)N[C@@H](CO)C(=O)N[C@@H](CO)C(=O)N[C@H](C(=O)N[C@@H](CC(N)=O)C(=O)N[C@H](C(=O)NCC(=O)N[C@@H](CO)C(=O)N[C@@H](CC(N)=O)C(=O)N[C@H](C(=O)N[C@@H](Cc1ccc(O)cc1)C(N)=O)[C@@H](C)O)C(C)C)[C@@H](C)O [Example 43]	≥ 200 µM	≥ 200 µM	≥ 200 µM	≥ 200 µM	≥ 200 µM	≥ 200 µM	≥ 200 µM	≥ 200 µM	34.7	34.7	34.7	34.7	34.7	34.7	9.96	69.1	69.1	69.1	8.12	pIC50 ([2]; Table 4, read-out: hAmylin-R bind IC50): 10.12; Ratio hCT/hAmylin binding ([2]; Table 5c, selectivity, hCTR bind IC50 / hAmylin-R bind IC50): 34.7
